From patent US20250320206A1, “STAT6 DEGRADERS” (Gilead Sciences, Inc., priority 2024, published 2025)

Assays:
STAT6 = target: T1, STAT6 (Homo sapiens, UniProt P42226); test: Stat6 Degrader Assay (HiBiT based, HeLa LgBiT clone 4.14); assay type: cell-based; conditions: HeLa LgBiT clone 4.14 HiBiT-STAT6, 4-24 h incubation; values given for compounds with >80% Emax; geometric mean; read-out: STAT6 degradation DC50
T1 construct: These cells express endogenous STAT6; host or cells: HeLa LgBiT clone 4.14
T1 sequence (P42226 1-847): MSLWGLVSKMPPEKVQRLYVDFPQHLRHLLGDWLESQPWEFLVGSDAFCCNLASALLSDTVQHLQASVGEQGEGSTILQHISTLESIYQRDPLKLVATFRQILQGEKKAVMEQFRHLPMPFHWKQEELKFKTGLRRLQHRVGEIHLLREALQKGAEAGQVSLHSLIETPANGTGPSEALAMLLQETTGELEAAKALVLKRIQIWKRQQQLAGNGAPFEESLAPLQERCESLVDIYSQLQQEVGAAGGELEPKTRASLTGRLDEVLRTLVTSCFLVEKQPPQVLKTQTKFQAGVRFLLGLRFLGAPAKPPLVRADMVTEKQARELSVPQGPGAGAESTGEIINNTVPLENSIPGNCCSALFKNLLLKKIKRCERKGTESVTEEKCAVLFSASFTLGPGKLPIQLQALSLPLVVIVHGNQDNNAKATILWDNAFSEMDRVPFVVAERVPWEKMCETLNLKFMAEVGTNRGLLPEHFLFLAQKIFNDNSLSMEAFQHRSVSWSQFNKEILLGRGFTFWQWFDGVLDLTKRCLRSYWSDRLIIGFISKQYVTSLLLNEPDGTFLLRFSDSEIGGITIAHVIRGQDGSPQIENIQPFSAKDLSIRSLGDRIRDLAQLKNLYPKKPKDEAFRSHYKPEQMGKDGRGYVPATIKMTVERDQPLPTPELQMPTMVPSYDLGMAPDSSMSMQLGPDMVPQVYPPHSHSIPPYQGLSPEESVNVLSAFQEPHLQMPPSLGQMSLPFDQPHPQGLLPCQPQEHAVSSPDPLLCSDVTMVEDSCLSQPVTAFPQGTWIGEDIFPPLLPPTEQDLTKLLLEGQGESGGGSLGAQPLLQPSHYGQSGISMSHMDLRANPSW
In short: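 Luminescence from HiBiT-STAT6 complementing stably expressed LgBiT in HeLa clone 4.14 reports remaining STAT6 protein. Cells (5000/well) exposed to compound for 4-24 h at 37° C; read 0.5 h after Nano-Glo addition. 100% degradation window set with 50 μM terfenadine; percent degradation plotted against concentration.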

[1] = tested on: Eotaxin-3 release in human whole blood stimulated with IL-4; test: Human Whole Blood Eotaxin-3 Assay (IL-4 stimulated eotaxin-3 release); assay type: cell-based; conditions: IL-4 stimulation, 48 h, values given for compounds with >80% Emax, geometric mean
In short: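 Eotaxin-3 (CCL26) release measured by MSD kit in plasma supernatant after 48 h IL-4 stimulation ([…]) of human whole blood. Compounds added in triplicate 4-fold dilutions 2 h before stimulation; 0.5% DMSO final, 37° C, 5% CO2.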

DC50 (STAT6) [nM] | EC50 [1] [nM] | Structure (SMILES)
3.4 | 1.9 | CNc1nc(=O)n(-c2ccnc3c2cc([C@H](C)N2CC=C(c4c(C)cc(C(=O)N5CCC(CN6CCN(Cc7ccc8c(c7)C7(CC7)C(=O)N8C7CCC(=O)NC7=O)C[C@@H]6C)CC5)cc4F)CC2)n3C)cc1F (stereo partly drawn) [Example 3u102, 3-(5′-(((S)-4-((1-(3-fluoro-4-(1-((S)-1-(4-(5-fluoro-4-(methylamino)-2-oxopyrimidin-1 (2H)-yl)-1-methyl-1H-pyrrolo[2,3-b]pyridin-2-yl)ethyl)-1,2,3,6-tetrahydropyridin-4-yl)-5-methylbenzoyl)piperidin-4-yl)methyl)-3-methylpiperazin-1-yl)methyl)-2′-oxospiro[cyclopropane-1,3′-indolin]-1′-yl)piperidine-2,6-dione]
0.2 | 0.3 | CNc1ccn(-c2ccnc3c2cc([C@H](C)N2CC=C(c4c(C)cc(C(=O)N5CCC(CN6CCN(Cc7ccc8c(c7)n(C)c(=O)n8[C@H]7CCC(=O)NC7=O)C[C@@H]6C)CC5)cc4F)CC2)n3C)c(=O)c1 (single isomer, unassigned) [Example 3u33]
0.3 | 0.9 | CNc1cc(=O)n(-c2ccnc3c2cc([C@H](C)N2CC=C(c4c(C)cc(C(=O)N5CCC(CN6CCN(Cc7ccc8c(c7)n(C)c(=O)n8C7CCC(=O)NC7=O)C[C@@H]6C)CC5)cc4F)CC2)n3C)cc1F (stereo partly drawn) [Example 3u90, 3-(5-(((S)-4-((1-(3-fluoro-4-(1-((S)-1-(4-(5-fluoro-4-(methylamino)-2-oxopyridin-1 (2H)-yl)-1-methyl-1H-pyrrolo[2,3-b]pyridin-2-yl)ethyl)-1,2,3,6-tetrahydropyridin-4-yl)-5-methylbenzoyl)piperidin-4-yl)methyl)-3-methylpiperazin-1-yl)methyl)-3-methyl-2-oxo-2,3-dihydro-1H-benzo[d]imidazol-1-yl)piperidine-2,6-dione]
3.1 | 7 | CNc1cc(=O)n(-c2ccnc3c2cc([C@H](C)N2CC=C(c4c(C)cc(C(=O)N5CCC(CN6CCN(Cc7ccc8c(c7)C7(CCC7)C(=O)N8C7CCC(=O)NC7=O)CC6)CC5)cc4F)CC2)n3C)cc1F (stereo partly drawn) [Example 3u258, 3-(5′-((4-((1-(3-fluoro-4-(1-((S)-1-(4-(5-fluoro-4-(methylamino)-2-oxopyridin-1 (2H)-yl)-1-methyl-1H-pyrrolo[2,3-b]pyridin-2-yl)ethyl)-1,2,3,6-tetrahydropyridin-4-yl)-5-methylbenzoyl)piperidin-4-yl)methyl)piperazin-1-yl)methyl)-2′-oxospiro[cyclobutane-1,3′-indolin]-1′-yl)piperidine-2,6-dione]
16.1 | 24.1 | CNc1cc(=O)n(-c2ccnc3c2cc(CN2CC=C(c4c(F)cc(C(=O)N5CCC(CN6CCN(Cc7ccc8c(c7)C(C)(C)C(=O)N8C7CCC(=O)NC7=O)C[C@@H]6C)CC5)cc4F)CC2)n3C)cc1F (stereo partly drawn) [Example 3u77, 3-(5-(((S)-4-((1-(3,5-difluoro-4-(1-((4-(5-fluoro-4-(methylamino)-2-oxopyridin-1 (2H)-yl)-1-methyl-1H-pyrrolo[2,3-b]pyridin-2-yl)methyl)-1,2,3,6-tetrahydropyridin-4-yl)benzoyl)piperidin-4-yl)methyl)-3-methylpiperazin-1-yl)methyl)-3,3-dimethyl-2-oxoindolin-1-yl)piperidine-2,6-dione]
4.7 | 11.7 | CNc1cc(=O)n(-c2ccnc3c2cc([C@H](C)N2CC=C(c4c(C)cc(C(=O)N5CC=C(CC6CCN(c7ccc8c(c7)C7(CC7)C(=O)N8C7CCC(=O)NC7=O)CC6)CC5)cc4F)CC2)n3C)cc1F (stereo partly drawn) [Example 3u20, 3-(5′-(4-((1-(3-fluoro-4-(1-((S)-1-(4-(5-fluoro-4-(methylamino)-2-oxopyridin-1 (2H)-yl)-1-methyl-1H-pyrrolo[2,3-b]pyridin-2-yl)ethyl)-1,2,3,6-tetrahydropyridin-4-yl)-5-methyl-benzoyl)-1,2,3,6-tetrahydropyridin-4-yl)methyl)piperidin-1-yl)-2′-oxospiro[cyclopropane-1,3′-indolin]-1′-yl)piperidine-2,6-dione]
2.7 | 5.8 | CNc1cc(=O)n(-c2ccnc3c2cc([C@H](C)N2CC=C(c4c(C)cc(C(=O)N5CCC(CN6CCN(c7ccc8c(c7)n(C)c(=O)n8[C@H]7CCC(=O)NC7=O)CC6)CC5)cc4F)CC2)n3C)cc1F (single isomer, unassigned) [Example 3u296]
1.7 | 12.9 | CNc1cc(=O)n(-c2ccnc3c2cc(CN2CCC(c4c(F)cc(C(=O)N5CCC(CN6CCN(Cc7ccc8c(c7)C(C)(C)C(=O)N8[C@H]7CCC(=O)NC7=O)C[C@@H]6C)CC5)cc4F)CC2)n3C)cc1F (single isomer, unassigned) [Example 3u49]
1.4 | 2.8 | Cc1cc(C(=O)N2CCC(CN3CCN(Cc4ccc5c(c4)n(C)c(=O)n5C4CCC(=O)NC4=O)C[C@@H]3C)CC2)cc(F)c1C1=CCN([C@@H](C)c2cc3c(-n4cc(F)c5c(c4=O)CCN5)ccnc3n2C)CC1 (stereo partly drawn) [Example 3u109, 3-(5-(((S)-4-((1-(3-fluoro-4-(1-((S)-1-(4-(7-fluoro-4-oxo-1,2,3,4-tetrahydro-5H-pyrrolo[3,2-c]pyridin-5-yl)-1-methyl-1H-pyrrolo[2,3-b]pyridin-2-yl)ethyl)-1,2,3,6-tetrahydropyridin-4-yl)-5-methylbenzoyl)piperidin-4-yl)methyl)-3-methylpiperazin-1-yl)methyl)-3-methyl-2-oxo-2,3-dihydro-1H-benzo[d]imidazol-1-yl)piperidine-2,6-dione]
1.1 | 1.3 | CNc1ccn(-c2ccnc3c2cc([C@H](C)N2CC=C(c4c(C)cc(C(=O)N5CCC(CN6CCN(Cc7cc8c(cc7F)n(C7CCC(=O)NC7=O)c(=O)n8C7CC7)C[C@@H]6C)CC5)cc4F)CC2)n3C)c(=O)c1 (stereo partly drawn) [Example 3u166, 3-(3-cyclopropyl-6-fluoro-5-(((S)-4-((1-(3-fluoro-5-methyl-4-(1-((S)-1-(1-methyl-4-(4-(methylamino)-2-oxopyridin-1 (2H)-yl)-1H-pyrrolo[2,3-b]pyridin-2-yl)ethyl)-1,2,3,6-tetrahydropyridin-4-yl)benzoyl)piperidin-4-yl)methyl)-3-methylpiperazin-1-yl)methyl)-2-oxo-2,3-dihydro-1H-benzo[d]imidazol-1-yl)piperidine-2,6-dione]
0.5 | 0.9 | CNc1ccn(-c2ccnc3c2cc([C@H](C)N2CC=C(c4c(C)cc(C(=O)N5CCC(CN6CCN(Cc7ccc8c(c7)C7(CC7)C(=O)N8C7CCC(=O)NC7=O)C[C@@H]6C)CC5)cc4F)CC2)n3C)c(=O)c1 (mixture of isomers) [Example 3u190, 3-(5′-(((S)-4-((1-(3-fluoro-5-methyl-4-(1-((S)-1-(1-methyl-4-(4-(methylamino)-2-oxopyridin-1 (2H)-yl)-1H-pyrrolo[2,3-b]pyridin-2-yl)ethyl)-1,2,3,6-tetrahydropyridin-4-yl)benzoyl)piperidin-4-yl)methyl)-3-methylpiperazin-1-yl)methyl)-2′-oxospiro[cyclopropane-1,3′-indolin]-1′-yl)piperidine-2,6-dione]
5.9 | 8 | CNc1ccn(-c2ccnc3c2cc([C@H](C)N2CC=C(c4c(C)cc(C(=O)N5CCC(CN6CCN(Cc7cc8c(cc7F)N([C@@H]7CCC(=O)NC7=O)C(=O)C8(C)C)C[C@@H]6C)CC5)cc4F)CC2)n3C)c(=O)c1 (single isomer, unassigned) [Example 3u183]
